According to article PMC9572860, “Antiprotozoal Activity of Azabicyclo-Nonanes Linked to Tetrazole or Sulfonamide Cores” (Molecules, 2022):
Read-outs that look alike come from different tables or passages of the source.

Columns and labels:
[1] = test system: T. b. rhodesiense STIB 900; test: In vitro microplate resazurin assay against T. brucei rhodesiense; format: cell-based, Trypanosoma brucei rhodesiense; conditions: for S.I. = IC50 (Cyt.)/IC50 (T.b.r.): L-6 cytotoxicity over T.b.r.; for IC50: Trypanosoma brucei, read-out: T. Brucei Rhodesiense IC50
Description: (§1) Compounds were tested for their activities against strains of P. falciparum and T. b. rhodesiense via microplate assays. Their cytotoxicity was determined with rat skeletal myoblasts (L-6 cells). Chloroquine and melarsoprol served as standards (Table 1).
Minimum essential medium (50 µL) supplemented with 25 mM HEPES, 1 g/L additional glucose, 1% MEM nonessential amino acids (100×), 0.2 mM 2-mercaptoethanol, 1 mM Na-pyruvate and 15% heat inactivated horse serum was added to each well of a 96-well microtiter plate. Serial drug dilutions of 11 three-fold dilution steps covering a range from 100 to 0.002 μg/mL were prepared. Then, 4 × 10^3 bloodstream forms of T. b. rhodesiense STIB 900 in 50 µL was added to each well and the plate incubated at 37 °C under a 5% CO2 atmosphere for 70 h. Ten microliters of resazurin solution (resazurin, 12.5 mg in 100 mL double-distilled water) was then added to each well and incubation continued for an additional 2–4 h. The plates were then read with a Spectramax Gemini XS microplate fluorometer (Molecular Devices Cooperation, Sunnyvale, CA, USA) using an excitation wavelength of 536 nm and an emission wavelength of 588 nm. Data were analyzed with the graphic program Softmax Pro (Molecular Devices Cooperation, Sunnyvale, CA, USA), which calculated IC50 values by linear regression and 4-parameter logistic regression from the sigmoidal dose inhibition curves. Melarsoprol (Arsobal Sanofi-Aventis, received from WHO) was used as control.

[2] = In vitro cytotoxicity with L-6 cells; format: cell-based, rat
Description: as §1
Assays were performed in 96-well microtiter plates, each well containing 0.1 mL of RPMI 1640 medium supplemented with 1% L-glutamine (200 mM) and 10% fetal bovine serum and 4000 L-6 cells (a primary cell line derived from rat skeletal myoblasts, ATCC CRL-1458™). Serial drug dilutions of 11 three-fold dilution steps covering a range from 100 to 0.002 μg/mL were prepared. After 70 h of incubation, the plates were inspected under an inverted microscope to assure the growth of the controls and sterile conditions. Then, 0.01 mL resazurin solution (resazurin, 12.5 mg in 100 ml double-distilled water) was added to each well and the plates incubated for another 2 h. The plates were read with a Spectramax Gemini XS microplate fluorometer (Molecular Devices Cooperation, Sunnyvale, CA, USA) using an excitation wavelength of 536 nm and an emission wavelength of 588 nm. The IC50 values were calculated by linear regression from the sigmoidal dose inhibition curves using SoftmaxPro software (Molecular Devices Cooperation, Sunnyvale, CA, USA). Podophyllotoxin (Sigma P4405) was used as control.

P. falciparum NF54 = test: In vitro microplate 3H-hypoxanthine incorporation assay against P. falciparum NF54; format: cell-based, Plasmodium falciparum; conditions: for S.I. = IC50 (Cyt.)/IC50 (P.f. NF54): L-6 cytotoxicity over P.f. NF54; for IC50: Plasmodium falciparum, NF54 strain sensitive to chloroquine and pyrimethamine, erythrocytic stages, average of four determinations, read-out: P. Falciparum NF54 IC50
Description: as §1
(§2) In vitro activity against erythrocytic stages of P. falciparum was determined using a ^3H-hypoxanthine incorporation assay, using the drug-sensitive NF54 strain [21] or the chloroquine- and pyrimethamine-resistant K1 strain [22]. Compounds were dissolved in DMSO at 10 mg/mL and added to parasite cultures incubated in RPMI 1640 medium without hypoxanthine, supplemented with HEPES (5.94 g/L), NaHCO3 (2.1 g/L), neomycin (100 U/mL), Albumax (5 g/L) and washed human red cells A+ at 2.5% hematocrit (0.3% parasitemia). Serial drug dilutions of 11 three-fold dilution steps covering a range from 100 to 0.002 µg/mL were prepared. The 96-well plates were incubated in a humidified atmosphere at 37 °C; 4% CO2, 3% O2, 93% N2. After 48 h, 0.05 mL of ^3H-hypoxanthine (=0.5 µCi) was added to each well of the plate. The plates were incubated for an additional 24 h under the same conditions. The plates were then harvested with a Betaplate cell harvester (Wallac, Zurich, Switzerland). The red blood cells were transferred onto a glass fiber filter and washed with distilled water. The dried filters were inserted into a plastic foil with 10 mL of scintillation fluid and counted in a Betaplate liquid scintillation counter (Wallac, Zurich, Switzerland). IC50 values were calculated from sigmoidal inhibition curves by linear regression using Microsoft Excel. Chloroquine (Sigma C6628) was used as control.

P. falciparum K1 = test: In vitro microplate 3H-hypoxanthine incorporation assay against P. falciparum K1; format: cell-based, Plasmodium falciparum; conditions: for S.I. = IC50 (Cyt.)/IC50 (P.f. K1): L-6 cytotoxicity over P.f. K1; for IC50: Plasmodium falciparum, K1 strain resistant to chloroquine and pyrimethamine, average of four determinations, read-out: P. Falciparum K1 IC50
Description: as §1, §2

[3] = STIB 900 bloodstream forms, average of four determinations

IC50 (P. falciparum K1) [nM]	Compound	S.I. = IC50 (Cyt.)/IC50 (T.b.r.) [1]	IC50 [1, 3] [nM]	IC50 at 72 h ([2]; rat) [nM]	S.I. = IC50 (Cyt.)/IC50 (P.f. NF54) (P. falciparum NF54)	IC50 (P. falciparum NF54) [nM]	S.I. = IC50 (Cyt.)/IC50 (P.f. K1) (P. falciparum K1)	IC50 [1] [nM]	IC50 at 72 h ([2]; rat skeletal myoblasts, average of four determinations, read-out: Cytotox. L-6 Cells IC50) [nM]
	Cc1ccc(C(NCCN2CC3C(c4ccccc4)CC(N4CCCCC4)(CC3c3ccccc3)C2)c2nnnn2C(C)(C)C)cc1 (stereo in doubt) [Compound 13B, rac-N-[(1R)-(1-tert-butyl-1H-tetrazol-5-yl)(p-tolyl)methyl]-2-[(6S,9S)-6,9-diphenyl-1-(piperidin-1-yl)-3-azabicyclo[3.2.2]nonan-3-yl]ethan-1-amine]	2.06	1000	2060	3.03	680			
	CC(C)(C)C(NCCN1CC2[C@H](c3ccccc3)CC(N3CCCCC3)(C[C@H]2c2ccccc2)C1)c1nnnn1C(C)(C)C (mixture of isomers) [Compound 11A, rac-(1R)-1-(1-tert-Butyl-1H-tetrazol-5-yl)-2,2-dimethyl-N-{2-[(6R,9R)-6,9-diphenyl-1-(piperidin-1-yl)-3-azabicyclo[3.2.2]nonan-3-yl]ethyl}propan-1-amine]	3.04	6610	20100	6.75	2980			
	Cc1ccc(S(=O)(=O)NCCN2CCC3(N4CCCCC4)C[C@H](c4ccccc4)C2[C@@H](c2ccccc2)C3)cc1 (racemic) [Compound 19, rac-(7R,8R)-4-Methyl-N-[2-(7,8-diphenyl-5-(piperidin-1-yl)-2-azabicyclo[3.2.2]nonan-2-yl)ethyl]benzenesulfonamide]	9.39	1150	10800	18.7	577			
	O=S(=O)(c1ccc(Cl)cc1)N1CCC2(N3CCCC3)C[C@H](c3ccccc3)C1[C@@H](c1ccccc1)C2 (racemic) [Compound 18, rac-(7R,8R)-2-(4-Chlorobenzenesulfonyl)-7,8-diphenyl-5-(pyrrolidin-1-yl)-2-azabicyclo[3.2.2]nonane]	5.28	1190	6290	10.4	606			
	Cc1ccc([C@@H](NCCN2CC3C(c4ccccc4)CC(N4CCCCC4)(CC3c3ccccc3)C2)c2nnnn2C(C)(C)C)cc1 (mixture of isomers) [Compound 13A, rac-N-[(1R)-(1-tert-Butyl-1H-tetrazol-5-yl)(p-tolyl)methyl]-2-[(6R,9R)-6,9-diphenyl-1-(piperidin-1-yl)-3-azabicyclo[3.2.2]nonan-3-yl]ethan-1-amine]	7.75	329	2550	5.72	446			
	CC(C)(C)n1nnnc1C(NCCN1CC2C(c3ccccc3)CC(N3CCCCC3)(CC2c2ccccc2)C1)c1ccccc1 (racemic) [Compound 12B, rac-N-[(1R)-1-tert-Butyl-1H-tetrazol-5-yl])(phenyl)methyl]-2-[(6S,9S)-6,9-diphenyl-1-(piperidin-1-yl)-3-azabicyclo[3.2.2]nonan-3-yl]ethan-1-amine]	1.68	1520	2560	1.92	1330			
540	NCCN1CCC2(N3CCCC3)C[C@H](c3ccccc3)C1[C@@H](c1ccccc1)C2 (racemic) [Compound 8, rac-(7R,8R)-2-[7,8-Diphenyl-5-(pyrrolidin-1-yl)-2-azabicyclo[3.2.2]nonan-2-yl]ethan-1-amine]	22.8	1130	25800			47.8		
	Nc1nc(N)nc(Nc2ccc([As]3SCC(CO)S3)cc2)n1 (centres unmarked) [MEL, melarsoprol, reference compound]	864						9	7780
	CC(C)(C)n1nnnc1CNCCN1CC2[C@H](c3ccccc3)CC(N3CCCCC3)(C[C@H]2c2ccccc2)C1 (racemic) [Compound 14, rac-(6R,9R)-N-[(1-tert-Butyl-1H-tetrazol-5-yl)methyl]-2-[6,9-diphenyl-1-(piperidin-1-yl)-3-azabicyclo[3.2.2]nonan-3-yl]ethan-1-amine]	14.17	1200	17000	8.76	1940			
180	NCCN1CCC2(N3CCCCC3)C[C@H](c3ccccc3)C1[C@@H](c1ccccc1)C2 (racemic) [Compound 7, rac-(7R,8R)-2-[7,8-Diphenyl-5-(piperidin-1-yl)-2-azabicyclo[3.2.2]nonan-2-yl]ethan-1-amine]	8.66	1940	16800			93.3		
	CC(C)(C)C(NCCN1CC2[C@@H](c3ccccc3)CC(N3CCCCC3)(C[C@@H]2c2ccccc2)C1)c1nnnn1C(C)(C)C (mixture of isomers) [Compound 11B, rac-(1R)-1-(1-tert-Butyl-1H-tetrazol-5-yl)-2,2-dimethyl-N-{2-[(6S,9S)-6,9-diphenyl-1-(piperidin-1-yl)-3-azabicyclo[3.2.2]nonan-3-yl]ethyl}propan-1-amine]	1.34	4920	6590	4.99	1320			
	CC(C)(C)n1nnnc1[C@H](NCCN1CC2C(c3ccccc3)CC(N3CCCCC3)(CC2c2ccccc2)C1)c1ccccc1 (mixture of isomers) [Compound 12A, rac-N-[(1R)-(1-tert-Butyl-1H-tetrazol-5-yl])(phenyl)methyl]-2-[(6R,9R)-6,9-diphenyl-1-(piperidin-1-yl)-3-azabicyclo[3.2.2]nonan-3-yl]ethan-1-amine]	1.29	2200	2830	11.2	252			
	Cc1ccc(S(=O)(=O)NCCN2CCC3(N4CCCC4)C[C@H](c4ccccc4)C2[C@@H](c2ccccc2)C3)cc1 (racemic) [Compound 20, rac-(7R,8R)-4-Methyl-N-{2-[7,8-diphenyl-5-(pyrrolidin-1-yl)-2-azabicyclo[3.2.2]nonan-2-yl]ethyl}benzenesulfonamide]	11.0	647	7150	14.7	487			
	CC(C)(C)n1nnnc1CN(CCN1CC2[C@H](c3ccccc3)CC(N3CCCCC3)(C[C@H]2c2ccccc2)C1)Cc1nnnn1C(C)(C)C (racemic) [Compound 15, rac-(6R,9R)-N,N-bis[(1-tert-Butyl-1H-tetrazol-5-yl)methyl]-2-[6,9-diphenyl-1-(piperidin-1-yl)-3-azabicyclo[3.2.2]nonan-3-yl]ethan-1-amine]	3.21	1300	4170	5.62	742			
